US10376520B2, “Methods for the treatment of cardiovascular disorders” (Galapagos NV, priority 2015, dated 2019)

Test system: RA patients
Assay: [HDL] determination, Study 1 (RA patients, add-on to MTX)
Format: in vivo, human
Method: Double-blind, placebo-controlled add on study in subjects with moderately to severely active RA who have an inadequate response to methotrexate (MTX) (oral or parenteral).
595 subjects randomized to one of 6 dose regimens of Compound 1 (dosed as a [Compound 1:HCl:3H2O]) (3 dose levels administered either once or twice daily) or placebo on top of each subject's stable dose of MTX.
Compound 1 (dosed as a [Compound 1:HCl:3H2O]) is dosed for twelve weeks once daily (q.d.) (50 mg, 100 mg or 200 mg) or twice daily (b.i.d.) (25 mg, 50 mg or 100 mg); or placebo.
At Week 12, the subjects on placebo who have not achieved 20% improvement in swollen joint count (SJC66) and tender joint count (TJC68) are re-randomized automatically to receive Compound 1 (dosed as a [Compound 1:HCl:3H2O]) either at 100 mg q.d. or 50 mg b.i.d. doses in a blinded fashion; subjects on 50 mg q.d. who have not achieved 20% improvement in SJC66 and TJC68 will be assigned to 100 mg q.d. and subjects on 25 mg b.i.d. that have not achieved a 20% improvement in SJC66 and TJC68 will be assigned to 50 mg b.i.d. Subjects who switch treatment at week 12 are handled as if they discontinued at week 12 for the purpose of statistical analysis, whereas subjects in the other groups will maintain their randomized treatment until Week 24.
This assay relies on a homogeneous enzymatic colorimetric test. In the presence of magnesium ions, dextran sulfate selectively forms water-soluble complexes with LDL, VLDL and chylomicrons which are resistant to PEG-modified enzymes.
The cholesterol concentration of [HDL]-cholesterol is determined enzymatically by cholesterol esterase and cholesterol oxidase coupled with PEG to the amino groups (approx. 40%).
In the presence of peroxidase, the hydrogen peroxide generated reacts with 4-amino-antipyrine and Sodium N-(2-hydroxy-3-sulfopropyl)-3,5-dimethoxyaniline (HSDA) to form a purple-blue dye. The color intensity of this dye is directly proportional to the cholesterol concentration and is measured photometrically.
Human serum and plasma samples [HDL] determination was done on a Roche/Hitachi Cobas c 701/702 system which automatically calculate the analyte concentration of each sample. Samples containing precipitates are centrifuged before performing the assay.

[1] = 2 x 25 mg b.i.d. (N = 86), week 1
[2] = 2 x 25 mg b.i.d. (N = 86), week 2
[3] = 2 x 25 mg b.i.d. (N = 86), week 4
[4] = 2 x 25 mg b.i.d. (N = 86), week 8
[5] = 2 x 25 mg b.i.d. (N = 86), week 12
[6] = 2 x 50 mg b.i.d. (N = 85), week 1
[7] = 2 x 50 mg b.i.d. (N = 85), week 2
[8] = 2 x 50 mg b.i.d. (N = 85), week 4
[9] = 2 x 50 mg b.i.d. (N = 85), week 8

O=C(Nc1nc2cccc(-c3ccc(CN4CCS(=O)(=O)CC4)cc3)n2n1)C1CC1 [Compound 1, cyclopropanecarboxylic acid {5-[4-(1,1-dioxo-thiomorpholin-4-ylmethyl)-phenyl]-[1,2,4]triazolo[1,5-a]pyridin-2yl}-amide]
[HDL] Mean CFB - 12 weeks results (50 mg q.d. (N = 82), week 1): 0.02 mmol/L
[HDL] Mean percentage CFB - 12 weeks results (50 mg q.d. (N = 82), week 1): 2%
[HDL] Median CFB - 12 weeks results (50 mg q.d. (N = 82), week 1): 0.01 mmol/L
[HDL] Mean CFB - 12 weeks results (50 mg q.d. (N = 82), week 2): 0.08 mmol/L
[HDL] Mean percentage CFB - 12 weeks results (50 mg q.d. (N = 82), week 2): 5%
[HDL] Median CFB - 12 weeks results (50 mg q.d. (N = 82), week 2): 0.08 mmol/L
[HDL] Mean CFB - 12 weeks results (50 mg q.d. (N = 82), week 4): 0.06 mmol/L
[HDL] Mean percentage CFB - 12 weeks results (50 mg q.d. (N = 82), week 4): 5%
[HDL] Median CFB - 12 weeks results (50 mg q.d. (N = 82), week 4): 0.05 mmol/L
[HDL] Mean CFB - 12 weeks results (50 mg q.d. (N = 82), week 8): 0.06 mmol/L
[HDL] Mean percentage CFB - 12 weeks results (50 mg q.d. (N = 82), week 8): 6%
[HDL] Median CFB - 12 weeks results (50 mg q.d. (N = 82), week 8): 0.10 mmol/L
[HDL] Mean CFB - 12 weeks results (50 mg q.d. (N = 82), week 12): 0.06 mmol/L
[HDL] Mean percentage CFB - 12 weeks results (50 mg q.d. (N = 82), week 12): 7%
[HDL] Median CFB - 12 weeks results (50 mg q.d. (N = 82), week 12): 0.05 mmol/L
[HDL] Mean CFB - 12 weeks results (100 mg q.d. (N = 85), week 1): 0.05 mmol/L
[HDL] Mean percentage CFB - 12 weeks results (100 mg q.d. (N = 85), week 1): 5%
[HDL] Median CFB - 12 weeks results (100 mg q.d. (N = 85), week 1): 0.06 mmol/L
[HDL] Mean CFB - 12 weeks results (100 mg q.d. (N = 85), week 2): 0.07 mmol/L
[HDL] Mean percentage CFB - 12 weeks results (100 mg q.d. (N = 85), week 2): 7%
[HDL] Median CFB - 12 weeks results (100 mg q.d. (N = 85), week 2): 0.07 mmol/L
[HDL] Mean CFB - 12 weeks results (100 mg q.d. (N = 85), week 4): 0.11 mmol/L
[HDL] Mean percentage CFB - 12 weeks results (100 mg q.d. (N = 85), week 4): 9%
[HDL] Median CFB - 12 weeks results (100 mg q.d. (N = 85), week 4): 0.13 mmol/L
[HDL] Mean CFB - 12 weeks results (100 mg q.d. (N = 85), week 8): 0.09 mmol/L
[HDL] Mean percentage CFB - 12 weeks results (100 mg q.d. (N = 85), week 8): 8%
[HDL] Median CFB - 12 weeks results (100 mg q.d. (N = 85), week 8): 0.11 mmol/L
[HDL] Mean CFB - 12 weeks results (100 mg q.d. (N = 85), week 12): 0.10 mmol/L
[HDL] Mean percentage CFB - 12 weeks results (100 mg q.d. (N = 85), week 12): 8%
[HDL] Median CFB - 12 weeks results (100 mg q.d. (N = 85), week 12): 0.10 mmol/L
[HDL] Mean CFB - 12 weeks results (200 mg q.d. (N = 86), week 1): 0.11 mmol/L
[HDL] Mean percentage CFB - 12 weeks results (200 mg q.d. (N = 86), week 1): 9%
[HDL] Median CFB - 12 weeks results (200 mg q.d. (N = 86), week 1): 0.13 mmol/L
[HDL] Mean CFB - 12 weeks results (200 mg q.d. (N = 86), week 2): 0.20 mmol/L
[HDL] Mean percentage CFB - 12 weeks results (200 mg q.d. (N = 86), week 2): 17%
[HDL] Median CFB - 12 weeks results (200 mg q.d. (N = 86), week 2): 0.20 mmol/L
[HDL] Mean CFB - 12 weeks results (200 mg q.d. (N = 86), week 4): 0.24 mmol/L
[HDL] Mean percentage CFB - 12 weeks results (200 mg q.d. (N = 86), week 4): 20%
[HDL] Median CFB - 12 weeks results (200 mg q.d. (N = 86), week 4): 0.25 mmol/L
[HDL] Mean CFB - 12 weeks results (200 mg q.d. (N = 86), week 8): 0.29 mmol/L
[HDL] Mean percentage CFB - 12 weeks results (200 mg q.d. (N = 86), week 8): 22%
[HDL] Median CFB - 12 weeks results (200 mg q.d. (N = 86), week 8): 0.30 mmol/L
[HDL] Mean CFB - 12 weeks results (200 mg q.d. (N = 86), week 12): 0.27 mmol/L
[HDL] Mean percentage CFB - 12 weeks results (200 mg q.d. (N = 86), week 12): 21%
[HDL] Median CFB - 12 weeks results (200 mg q.d. (N = 86), week 12): 0.26 mmol/L
[HDL] Mean CFB - 12 weeks results [1]: 0.00 mmol/L
[HDL] Mean percentage CFB - 12 weeks results [1]: 0%
[HDL] Median CFB - 12 weeks results [1]: 0.00 mmol/L
[HDL] Mean CFB - 12 weeks results [2]: 0.04 mmol/L
[HDL] Mean percentage CFB - 12 weeks results [2]: 4%
[HDL] Median CFB - 12 weeks results [2]: 0.05 mmol/L
[HDL] Mean CFB - 12 weeks results [3]: 0.05 mmol/L
[HDL] Mean percentage CFB - 12 weeks results [3]: 4%
[HDL] Median CFB - 12 weeks results [3]: 0.05 mmol/L
[HDL] Mean CFB - 12 weeks results [4]: 0.06 mmol/L
[HDL] Mean percentage CFB - 12 weeks results [4]: 5%
[HDL] Median CFB - 12 weeks results [4]: 0.10 mmol/L
[HDL] Mean CFB - 12 weeks results [5]: 0.06 mmol/L
[HDL] Mean percentage CFB - 12 weeks results [5]: 6%
[HDL] Median CFB - 12 weeks results [5]: 0.05 mmol/L
[HDL] Mean CFB - 12 weeks results [6]: 0.03 mmol/L
[HDL] Mean percentage CFB - 12 weeks results [6]: 4%
[HDL] Median CFB - 12 weeks results [6]: 0.05 mmol/L
[HDL] Mean CFB - 12 weeks results [7]: 0.12 mmol/L
[HDL] Mean percentage CFB - 12 weeks results [7]: 10%
[HDL] Median CFB - 12 weeks results [7]: 0.10 mmol/L
[HDL] Mean CFB - 12 weeks results [8]: 0.13 mmol/L
[HDL] Mean percentage CFB - 12 weeks results [8]: 12%
[HDL] Median CFB - 12 weeks results [8]: 0.13 mmol/L
[HDL] Mean CFB - 12 weeks results [9]: 0.13 mmol/L
[HDL] Mean percentage CFB - 12 weeks results [9]: 11%
[HDL] Median CFB - 12 weeks results [9]: 0.14 mmol/L
